Numbers after ± are expanded uncertainties.
Assay: osmotic coefficient (dimensionless); mn = molality of the nth substance listed, in mol/kg
Details: 101 kPa, Liquid, isopiestic method

C1CN2CN3CCN(CN1C3)C2 [1,3,6,8-tetraazatricyclo[4.4.1.1(3,8)]dodecane] + O
osmotic coefficient (288.15 K, m1 = 0.2149): 0.9605 ± 0.0017
osmotic coefficient (288.15 K, m1 = 0.2154): 0.9583 ± 0.0018
osmotic coefficient (288.15 K, m1 = 0.3036): 0.9533 ± 0.0019
osmotic coefficient (288.15 K, m1 = 0.3041): 0.9518 ± 0.002
osmotic coefficient (288.15 K, m1 = 0.5049): 0.9571 ± 0.0018
osmotic coefficient (288.15 K, m1 = 0.5066): 0.9563 ± 0.0019
osmotic coefficient (288.15 K, m1 = 0.603): 0.9824 ± 0.0013
osmotic coefficient (288.15 K, m1 = 0.604): 0.9816 ± 0.0013
osmotic coefficient (288.15 K, m1 = 0.7629): 1.016 ± 0.0013
osmotic coefficient (288.15 K, m1 = 0.7638): 1.015 ± 0.0013
osmotic coefficient (288.15 K, m1 = 1.011): 1.1
osmotic coefficient (293.15 K, m1 = 0.2023): 0.991 ± 0.0011
osmotic coefficient (293.15 K, m1 = 0.2031): 0.9887 ± 0.0011
osmotic coefficient (293.15 K, m1 = 0.3454): 0.9917 ± 0.0011
osmotic coefficient (293.15 K, m1 = 0.3458): 0.9907 ± 0.0011
osmotic coefficient (293.15 K, m1 = 0.5003): 0.993 ± 0.001
osmotic coefficient (293.15 K, m1 = 0.5009): 0.9919 ± 0.0011
osmotic coefficient (293.15 K, m1 = 0.7613): 1.035 ± 0.0016
osmotic coefficient (293.15 K, m1 = 0.7629): 1.033 ± 0.0016
osmotic coefficient (293.15 K, m1 = 0.9099): 1.056 ± 0.0023
osmotic coefficient (293.15 K, m1 = 0.9108): 1.055 ± 0.0022
osmotic coefficient (293.15 K, m1 = 1.068): 1.119 ± 0.0046
osmotic coefficient (293.15 K, m1 = 1.069): 1.118 ± 0.0046
osmotic coefficient (298.15 K, m1 = 0.2201): 1.014 ± 0.0011
osmotic coefficient (298.15 K, m1 = 0.2205): 1.012 ± 0.0011
osmotic coefficient (298.15 K, m1 = 0.3086): 1.017 ± 0.0012
osmotic coefficient (298.15 K, m1 = 0.3087): 1.016 ± 0.0012
osmotic coefficient (298.15 K, m1 = 0.5052): 1.028 ± 0.0014
osmotic coefficient (298.15 K, m1 = 0.5055): 1.027 ± 0.0014
osmotic coefficient (298.15 K, m1 = 0.562): 1.032 ± 0.0015
osmotic coefficient (298.15 K, m1 = 0.5624): 1.032 ± 0.0015
osmotic coefficient (298.15 K, m1 = 0.7125): 1.045 ± 0.0019
osmotic coefficient (298.15 K, m1 = 0.9849): 1.075 ± 0.003
osmotic coefficient (298.15 K, m1 = 0.9867): 1.073 ± 0.0029
osmotic coefficient (303.15 K, m1 = 0.2074): 0.972 ± 0.0014
osmotic coefficient (303.15 K, m1 = 0.2079): 0.9707 ± 0.0015
osmotic coefficient (303.15 K, m1 = 0.3266): 0.9871 ± 0.0011
osmotic coefficient (303.15 K, m1 = 0.3271): 0.9863 ± 0.0011
osmotic coefficient (303.15 K, m1 = 0.5022): 1.015 ± 0.0011
osmotic coefficient (303.15 K, m1 = 0.5029): 1.014 ± 0.0011
osmotic coefficient (303.15 K, m1 = 0.6864): 1.033 ± 0.0015
osmotic coefficient (303.15 K, m1 = 0.6868): 1.034 ± 0.0016
osmotic coefficient (303.15 K, m1 = 0.7946): 1.057 ± 0.0023
osmotic coefficient (303.15 K, m1 = 0.7955): 1.057 ± 0.0023
osmotic coefficient (303.15 K, m1 = 1.028): 1.103 ± 0.004
osmotic coefficient (303.15 K, m1 = 1.029): 1.102 ± 0.004
